Tests used:
memapsin 2 = memapsin 2 (Homo sapiens, UniProt P56817); assay: Inhibition of memapsin 2 beta-secretase activity toward fluorogenic substrate FS-2; assay type: biochemical; conditions: memapsin 2, pH 4, 37° C., 20 minutes pre-incubation, substrate FS-2; read-out: M2Ki
Procedure: Potency of compounds were determined by measurement of their inhibition of memapsin 2 activity toward a fluorescent substrate. Kinetic inhibition experiments were performed using the procedure as described in Ermolieff, et al. (Biochemistry 39:12450-12456 (2000), the teachings of which are incorporated hereby in their entirety). Briefly, assays were performed at pH 4, 37° C., by pre-incubation of memapsin 2 enzyme with compound for 20 minutes. Activity measurements were initiated by addition of a fluorogenic substrate FS-2 (Bachem Americas, Torrance, Calif.) MCA-SEVNLDAEFK-DNP (SEQ ID NO.: 2). The substrate was derived from 10 amino acids of the human amyloid precursor protein (APP), with the Swedish variant amino acids at the beta-secretase cleavage site. The terminal amino acid was modified from arginine to lysine to facilitate derivatization with a functional group for detection by autofluorescence. The amino acid sequence of the “core” peptide of the substrate is SEVNLDAEFK (SEQ ID NO.: 3). The amino terminus was derivatized with (7-methoxycoumarin-4-yl)acetyl (MCA), and the epsilon amine of the lysine side chain of the terminal residue (K in sequence SEVNLDAEFK (SEQ ID NO.: 4)) was derivatized with 2,4-dinitrophenyl (DNP).

[1] = system: Aβ production in Chinese hamster ovary cells that over-express human APP695 with the London and Swedish mutations; assay: Cellular Aβ IC50 determination (Aβ40 sandwich ELISA); assay type: cell-based; conditions: Cricetulus griseus; Aβ40 in CHO cells over-expressing human APP695, 24 h incubation
Procedure: The potency of compounds against memapsin 2 activity was determined in a cellular assay of Aβ production. […] Chinese hamster ovary cells that over-express human APP695 with the London and Swedish mutations were seeded in multi-well plates at 10% confluency. Compounds are dissolved in DMSO to concentrations near 1 mM, and diluted into culture media to a final concentration near 4 μM (final 0.4% DMSO). Compounds were diluted serially and applied to cells in multi-well plates 48 h after seeding. Incubation was continued in 5% CO2 at 37° C. for 24 h. Aliquots were removed and assayed for Aβ40 content using a sandwich ELISA (BioSource International). Amount of Aβ40 over the range of concentration of compounds, relative to control incubations, were fit to a 4-parameter IC50 model.

memapsin 2, sequence (P56817 46-501): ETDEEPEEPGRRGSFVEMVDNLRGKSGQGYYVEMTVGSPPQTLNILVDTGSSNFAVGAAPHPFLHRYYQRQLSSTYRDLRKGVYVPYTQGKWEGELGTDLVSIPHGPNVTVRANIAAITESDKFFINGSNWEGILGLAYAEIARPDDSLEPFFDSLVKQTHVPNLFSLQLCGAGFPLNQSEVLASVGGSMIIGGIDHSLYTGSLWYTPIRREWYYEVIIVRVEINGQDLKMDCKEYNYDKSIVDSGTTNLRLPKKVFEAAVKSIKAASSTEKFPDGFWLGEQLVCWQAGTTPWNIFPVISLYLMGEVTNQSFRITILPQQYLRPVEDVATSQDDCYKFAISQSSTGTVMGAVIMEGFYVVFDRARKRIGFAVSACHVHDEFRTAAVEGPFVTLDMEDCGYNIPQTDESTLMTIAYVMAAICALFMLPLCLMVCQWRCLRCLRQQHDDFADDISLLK

Ki (memapsin 2) [nM] | IC50 [1] [nM] | Structure (SMILES)
< 100 | < 300 | Cc1csc([C@H]2CCCN2C(=O)c2cc(C(=O)N[C@@H](Cc3ccccc3)[C@H](O)CNCc3cncc(C(C)(C)F)c3)cc(-c3ncco3)c2)n1 [Compound 38, N-((2S,3R)-4-((5-(2-fluoropropan-2-yl)pyridin-3-yl)methylamino)-3-hydroxy-1-phenylbutan-2-yl)-3-((R)-2-(4-methylthiazol-2-yl)pyrrolidine-1-carbonyl)-5-(oxazol-2-yl)benzamide]
< 100 | < 300 | COc1cc(C(=O)N[C@@H](Cc2ccccc2)[C@H](O)CNCc2cccc(C(C)(C)C)c2)cc(C(=O)N2CCC[C@@H]2c2nc(C)cs2)c1 [Compound 16, N-((2S,3R)-4-(3-tert-butylbenzylamino)-3-hydroxy-1-phenylbutan-2-yl)-3-methoxy-5-((R)-2-(4-methylthiazol-2-yl)pyrrolidine-1-carbonyl)benzamide]
< 100 | < 300 | Cc1coc([C@H]2CCCN2C(=O)c2cccc(C(=O)N[C@@H](Cc3ccccc3)[C@H](O)CNCc3cncc(C(C)(F)F)c3)c2)n1 [Compound 102, N-((2S,3R)-4-((5-(1,1-difluoroethyl)pyridin-3-yl)methylamino)-3-hydroxy-1-phenylbutan-2-yl)-3-((R)-2-(4-methyloxazol-2-yl)pyrrolidine-1-carbonyl)benzamide]
101 to 200 | < 300 | Cc1csc([C@H]2CCCN2C(=O)c2cncc(C(=O)N[C@@H](Cc3ccccc3)[C@H](O)CNCc3cccc(C(C)(C)C)c3)c2)n1 [Compound 32, N-((2S,3R)-4-(3-tert-butylbenzylamino)-3-hydroxy-1-phenylbutan-2-yl)-5-((R)-2-(4-methylthiazol-2-yl)pyrrolidine-1-carbonyl)nicotinamide]
< 100 | < 300 | Cc1coc([C@H]2CCCN2C(=O)c2cncc(C(=O)N[C@@H](Cc3ccccc3)[C@H](O)CNCc3cccc(C(C)(C)C)c3)c2)n1 [Compound 76, N-((2S,3R)-4-(3-tert-butylbenzylamino)-3-hydroxy-1-phenylbutan-2-yl)-5-((R)-2-(4-methyloxazol-2-yl)pyrrolidine-1-carbonyl)nicotinamide]
< 100 | < 300 | Cc1csc([C@H]2CCCN2C(=O)c2cc(C(=O)N[C@@H](Cc3ccccc3)[C@H](O)CNCc3cccc(C(F)(F)F)c3)ccn2)n1 [Compound 64, N-((2S,3R)-3-hydroxy-1-phenyl-4-(3-(trifluoromethyl)benzylamino)butan-2-yl)-2-((R)-2-(4-methylthiazol-2-yl)pyrrolidine-1-carbonyl)isonicotinamide]
< 100 | < 300 | Cc1coc([C@H]2CCCN2C(=O)c2cc(C(=O)N[C@@H](Cc3ccccc3)[C@H](O)CNCc3cccc(C(F)(F)F)c3)cc(-c3ncco3)c2)n1 [Compound 87, N-((2S,3R)-3-hydroxy-1-phenyl-4-(3-(trifluoromethyl)benzylamino)butan-2-yl)-3-((R)-2-(4-methyloxazol-2-yl)pyrrolidine-1-carbonyl)-5-(oxazol-2-yl)benzamide]
> 201 | > 501 | COc1cccc(CNC[C@@H](O)[C@H](Cc2ccccc2)NC(=O)c2cccc(C(=O)N3CCCC3)c2)c1 [Compound 21, N-((2S,3R)-3-hydroxy-4-(3-methoxybenzylamino)-1-phenylbutan-2-yl)-3-(pyrrolidine-1-carbonyl)benzamide]
< 100 | < 300 | Cc1coc([C@H]2CCCN2C(=O)c2cc(CF)cc(C(=O)N[C@@H](Cc3ccccc3)[C@H](O)CNCc3cccc(C(F)(F)F)c3)c2)n1 [Compound 82, 3-(fluoromethyl)-N-((2S,3R)-3-hydroxy-1-phenyl-4-(3-(trifluoromethyl)benzylamino)butan-2-yl)-5-((R)-2-(4-methyloxazol-2-yl)pyrrolidine-1-carbonyl)benzamide]
< 100 | < 300 | Cc1csc([C@H]2CCCN2C(=O)c2cc(C(=O)N[C@@H](Cc3ccccc3)[C@H](O)CNCc3cccc(C(C)(C)C)c3)cc(N(C)C)c2)n1 [Compound 41, N-((2S,3R)-4-(3-tert-butylbenzylamino)-3-hydroxy-1-phenylbutan-2-yl)-3-(dimethylamino)-5-((R)-2-(4-methylthiazol-2-yl)pyrrolidine-1-carbonyl)benzamide]
< 100 | < 300 | COc1cc(C(=O)N[C@@H](Cc2ccccc2)[C@H](O)CNCc2cncc(C(C)C)c2)cc(C(=O)N2CCC[C@@H]2c2nc(C)cs2)c1 [Compound 83, N-((2S,3R)-3-hydroxy-4-((5-isopropylpyridin-3-yl)methylamino)-1-phenylbutan-2-yl)-3-methoxy-5-((R)-2-(4-methylthiazol-2-yl)pyrrolidine-1-carbonyl)benzamide]
< 100 | < 300 | Cc1csc([C@H]2CCCN2C(=O)c2cccc(C(=O)N[C@@H](Cc3ccccc3)[C@H](O)CN[C@H](C)c3cncc(C(C)C)c3)c2)n1 [Compound 46, N-((2S,3R)-3-hydroxy-4-((R)-1-(5-isopropylpyridin-3-yl)ethylamino)-1-phenylbutan-2-yl)-3-((R)-2-(4-methylthiazol-2-yl)pyrrolidine-1-carbonyl)benzamide]
< 100 | < 300 | Cc1coc([C@H]2CCCN2C(=O)c2cncc(C(=O)N[C@@H](Cc3ccccc3)[C@H](O)CNCc3cncc(C(C)(C)F)c3)c2)n1 [Compound 73, N-((2S,3R)-4-((5-(2-fluoropropan-2-yl)pyridin-3-yl)methylamino)-3-hydroxy-1-phenylbutan-2-yl)-5-((R)-2-(4-methyloxazol-2-yl)pyrrolidine-1-carbonyl)nicotinamide]
< 100 | < 300 | Cc1csc([C@H]2COCN2C(=O)c2cccc(C(=O)N[C@@H](Cc3ccccc3)[C@H](O)CNCc3cccc(C(F)(F)F)c3)c2)n1 [Compound 26, N-((2S,3R)-3-hydroxy-1-phenyl-4-(3-(trifluoromethyl)benzylamino)butan-2-yl)-3-((R)-4-(4-methylthiazol-2-yl)oxazolidine-3-carbonyl)benzamide]
< 100 |  | Cc1csc([C@H]2CCCN2C(=O)c2cncc(C(=O)N[C@@H](Cc3ccccc3)[C@H](O)CNCc3cc(C#N)cc(C(C)C)c3)c2)n1 [Compound 61, N-((2S,3R)-4-(3-cyano-5-isopropylbenzylamino)-3-hydroxy-1-phenylbutan-2-yl)-5-((R)-2-(4-methylthiazol-2-yl)pyrrolidine-1-carbonyl)nicotinamide]
101 to 200 |  | COc1cccc([C@H](C)NC[C@@H](O)[C@H](Cc2ccccc2)NC(=O)c2cc(C(=O)N3CCC[C@@H]3c3nc(C)cs3)cc(N(C)C)c2)c1 [Compound 53, 3-(dimethylamino)-N-((2S,3R)-3-hydroxy-4-((S)-1-(3-methoxyphenyl)ethylamino)-1-phenylbutan-2-yl)-5-((R)-2-(4-methylthiazol-2-yl)pyrrolidine-1-carbonyl)benzamide]
> 201 |  | Cc1csc([C@H]2CCCN2C(=O)c2cccc(C(=O)N[C@@H](Cc3ccccc3)[C@H](O)CNC3CC3)c2)n1 [Compound 19, N-((2S,3R)-4-(cyclopropylamino)-3-hydroxy-1-phenylbutan-2-yl)-3-((R)-2-(4-methylthiazol-2-yl)pyrrolidine-1-carbonyl)benzamide]
< 100 |  | COc1cccc([C@H](C)NC[C@@H](O)[C@H](Cc2ccccc2)NC(=O)c2cc(C(=O)N3CCC[C@@H]3c3nc(C)cs3)cc(C(F)F)c2)c1 [Compound 63, 3-(difluoromethyl)-N-((2S,3R)-3-hydroxy-4-((S)-1-(3-methoxyphenyl)ethylamino)-1-phenylbutan-2-yl)-5-((R)-2-(4-methylthiazol-2-yl)pyrrolidine-1-carbonyl)benzamide]
< 100 |  | CCn1cc(CNC[C@@H](O)[C@H](Cc2ccccc2)NC(=O)c2cc(C)cc(C(=O)N3CCC[C@@H]3c3nc(C)co3)c2)cn1 [Compound 110, N-((2S,3R)-4-((1-ethyl-1H-pyrazol-4-yl)methylamino)-3-hydroxy-1-phenylbutan-2-yl)-3-methyl-5-((R)-2-(4-methyloxazol-2-yl)pyrrolidine-1-carbonyl)benzamide]
< 100 |  | Cc1csc([C@H]2CCCN2C(=O)c2cccc(C(=O)N[C@@H](Cc3ccccc3)[C@H](O)CNCc3cc(C(C)C)on3)c2)n1 [Compound 106, N-((2S,3R)-3-hydroxy-4-((5-isopropylisoxazol-3-yl)methylamino)-1-phenylbutan-2-yl)-3-((R)-2-(4-methylthiazol-2-yl)pyrrolidine-1-carbonyl)benzamide]

From patent publication US8299267B2, “(3-hydroxy-4-amino-butan-2-yl) -3- (2-thiazol-2-yl-pyrrolidine-1-carbonyl) benzamide derivatives and related compounds as beta-secretase inhibitors for treating” (CoMentis, Inc., priority 2007, dated 2012)
